From ChEMBL document CHEMBL1130972, “Sugar-substituted 2-azetidinones as cholesterol absorption inhibitors” (1998)

Assays:
Cricetinae gen. sp. [1] = assay: Tested for inhibition of liver cholesterol esters absorption in cholesterol-fed hamsters at a oral dose of 10 mg/Kg/day; type: functional, Cricetulus griseus
Cricetinae gen. sp. [2] = assay: Tested for inhibition of serum cholesterol absorption in cholesterol-fed hamsters at a oral dose of 10 mg/Kg/day; type: functional, hamster
Cricetinae gen. sp. [3] = assay: Tested for inhibition of liver cholesterol esters absorption in cholesterol-fed hamsters at a oral dose of 8 mg/Kg/day; type: functional, Cricetulus griseus
Cricetinae gen. sp. [4] = assay: Tested for inhibition of serum cholesterol absorption in cholesterol-fed hamsters at a oral dose of 8 mg/Kg/day; type: functional, Cricetulus griseus

| Structure (SMILES) | Reduction (Cricetinae gen. sp. [1]) | Reduction (Cricetinae gen. sp. [2]) | Reduction (Cricetinae gen. sp. [3]) | Reduction (Cricetinae gen. sp. [4]) |
| --- | --- | --- | --- | --- |
| COc1ccc(N2C(=O)[C@H](CCCc3ccccc3)[C@H]2c2ccc(O[C@@H]3O[C@H](CO)[C@@H](O)[C@H](O)[C@H]3O)cc2)cc1 | -86% | -29% |  |  |
| COc1ccc(N2C(=O)[C@H](CCCc3ccccc3)[C@H]2c2ccc(O)cc2)cc1 | -70% | -25% |  |  |
| COc1ccc([C@@H]2[C@@H](CCCc3ccccc3)C(=O)N2c2ccc(OC)cc2)cc1 [SCH-48461] | -93% | -43% |  |  |
| COC(=O)[C@H]1O[C@@H](Oc2ccc([C@@H]3[C@@H](CCCc4ccccc4)C(=O)N3c3ccc(OC)cc3)cc2)[C@H](O)[C@@H](O)[C@@H]1O |  |  | -62% | -23% |
| COc1ccc(N2C(=O)[C@H](CCCc3ccccc3)[C@H]2c2ccc(O[C@@H]3O[C@H](COCc4ccccc4)[C@@H](OCc4ccccc4)[C@H](OCc4ccccc4)[C@H]3OCc3ccccc3)cc2)cc1 | -21% | -9% |  |  |
| COc1ccc(N2C(=O)[C@H](CCCc3ccccc3)[C@H]2c2ccc(OC[C@H]3O[C@H](OC)[C@H](O)[C@@H](O)[C@@H]3O)cc2)cc1 | -48% | -10% |  |  |
| COc1ccc(N2C(=O)[C@H](CCCc3ccccc3)[C@H]2c2ccc(O[C@@H]3O[C@H](C(=O)O)[C@@H](O)[C@H](O)[C@H]3O)cc2)cc1 | -9% | -10% |  |  |
